Measurements: patent US20060278218A1, “Non-invasive restrained whole body plethysmography for measurement of airway function in conscious mice” (priority 2005, published 2006)
Where “and” joins values, the source holds several entries; their conditions need not be identical. Identical values can stand only once. Marks after values point to notes of the source that are not given here.

Key:
Type in all cases: in vivo, mouse
conscious mice [1] = test: Methacholine aerosol challenge in conscious mice, restrained whole body plethysmography (RWBP); details: for sRaw-RWBP ED175: mean; for average sRaw: one C57BL/6 mouse
Text: The dynamic properties of the plethysmograph were studied by varying pressures in the chamber (John, J., B. Drefeldt, et al. (1994). “Dynamic properties of body plethysmographs and effects on physiological parameters.” J Appl Physiol 77(1): 152-9. (hereinafter John, et al.), incorporated herein by reference). A leak (3.2 sec to 36% peak pressure) was created by a Luer connector mounted in the wall of the box, which was attached to a length of tubing, a stopcock and needle (22 g, 2 cm). The leak resistance was measured to be 5.37 cm H2O/L/sec and inertance 0.029 s^2/mL. A step pressure created by (a) hammering gently the plunger of a syringe loaded to an expected volume (0.02 mL), and (b) balloon burst both peaked between 19-21 msec, with a thermal time constant (described by a single compartment) of 0.95 sec. Amplitude was examined as a function of input frequency using digitally controlled square and sinusoidal flows delivered with a piston-driven mouse ventilator (flexiVent, Scireq Corp, Montreal, Canada). Box pressure amplitude remained within 3% of the delivered volume (0.1 mL) from 1-10 Hz, and within 0.075% between 2 and 5 Hz, the range most relevant to breathing in conscious mice. Therefore the conditions were adiabatic across these frequencies. Time shifts between flow, delivered via the pneumotachograph within the box, and peak box pressure averaged less than 3 msec (range 1-6 msec) from 0.5-20 Hz generated using a broadband input generator (flexiVent, Scireq Corp). Pressure in the plethysmographic chamber was sampled differential pressure transducer 20 (TRD 5700, Buxco Electronics, Wilmington, N.C.) referenced to the atmospheric reference chamber 18 The pneumotachograph 52 (8431 Series, Hans Rudolph, Kansas City, Mo.) heated to 38-39° C. measured flow and flow-derived parameters. Data was sampled at 2500 Hz per channel using commercial hardware (Max1420 Buxco Electronics, PCI 6024E, National Instruments) and software (Biosystem XA version 2.9.4, Buxco Electronics, Inc). The pneumotachograph was calibrated by integration of the flow, injected as a known volume (0.5 mL). Box volume was calibrated by rapid injection of a known volume (0.1 mL) into the chamber between each mouse, and checked repeatedly using injections of varying volumes and quasi-sinusoidal inputs. Bias flow (0.5 L/min) was employed between recordings, and the box vented fully between methacholine challenges.
FIGS. 9A-9D are box volume-flow plots for the experiments performed using an RWBP according to the invention. Primary waveforms (box volume, flow) are reviewed and period of peak responses based on EF50 are identified. These occurred regularly between 1.5-2.5 minutes after exposure to methacholine. FIGS. 9A-9D have a stripchart for pneumotachograph flow and plethysmographic volume. Below the stripcharts are corresponding X-Y plots of flow (Y-axis) and box volume shift (X-axis). A slope (θ) of the box volume-flow plot was measured using a protractor (accurate to 0.5 degrees) on the straightest possible segment between −1 to 1 mL/sec. Angles are measured at the transition from expiration to inspiration to minimize the contribution of heating and humidification to the box volume signal (see Agrawal K P). Gains were set to produce angles (tangents) between 40 and 75 degrees. Breaths with evidence of laryngeal braking are avoided. Specific airway resistance (sRaw) is computed from the plots as follows: sRaw=(1/tan θ)*(Patm−PH2O)*Cf*(Vbox−bwt mouse)/Vbox, Equation 1: where Patm is atmospheric pressure, PH2O is water vapor pressure, Cf is a scaling factor for X and Y axes, Vbox is volume of the outer chamber, and bwt mouse is the weight of the mouse in units of grams.
Challenges were conducted at the same time of day (morning or afternoon) for each mouse. Ambient temperatures in the laboratory ranged from 21-23° C. and humidity ranged from 25-45%. Baseline recordings were obtained after 2 min acclimation to the chamber. […]

[2] = tested on: anesthetized, tracheotomized mice; test: Methacholine challenge in anesthetized mice using forced oscillation technique (FOT); details: for Raw ED175: provocative concentration increasing Raw-FOT to 175% baseline, mean
Experimental: The methods for FOT have been previously described in Tomioka, S., J. H. Bates, et al. (2002). “Airway and tissue mechanics in a murine model of asthma: alveolar capsule vs. forced oscillations.” J Appl Physiol 93(1): 263-70. (hereinafter Tomioka, et al.), incorporated herein by reference. Mice were anesthetized with ketamine (50 mg/kg) and xylazine (5 mg/kg) (Butler Co, Dublin, Ohio) intra-peritoneally, and a tracheostomy performed with a 19 g cannula (Becton Dickinson and Company Franklin Lakes, N.Y.). Mice were paralyzed with pancuronium (1 mg/ml, Baxter Healthcare Corp. Irvine, Calif.). Supplemental xylazine and ketamine (½ doses) were provided every ½ hour. Ventilation was set at frequency of 200 BPM, VT 0.3 ml, positive end-expiratory pressure (PEEP) 3.0 cm H20, and oxygen was supplemented throughout. Repeated measurements were performed with a commercial data acquisition system for input impedance between 1-20 Hz (Quick Prime 3 analyzer, FlexiVent System, SCIREQ Corp, Montreal, Quebec). A constant phase model (Gomes, R. F., X. Shen, et al. (2000). “Comparative respiratory system mechanics in rodents.” J Appl Physiol 89(3): 908-16 (hereinafter Gomes, et al.)., incorporated herein by reference) was employed to obtain airway resistance Raw, tissue resistance coefficient Gti, and tissue elastance coefficient Hti.
Aerosols were delivered directly into the tracheal cannula during lung inflation during mechanical ventilation (flexiVent, Scireq Corp, Montreal, Quebec). Ten second nebulization periods were used, followed immediately by a series (8-15) of measurements. Prior to each measurement of lung mechanics, the lung was inflated to total lung capacity (TLC) (30 cm H2O airway pressure). Forced oscillations during apnea (3 seconds in duration) were applied every 17 seconds for 5 minutes. Dosage ranges were pre-determined in pilot studies to evoke between 10 and >75% increase in airway resistance (Raw). Methacholine in C57 mice was delivered at 0 (saline), 4, 8, and 16 mg/mL, and in AJ we used 0, 2, 4, and 8 mg/mL. The concentration of methacholine that provoked an increase in Raw-FOT to 175% baseline (ED 175) was determined by log-linear interpolation as described above.

conscious mice [3] = test: Methacholine aerosol challenge in conscious mice, double chamber plethysmography (DCP); details: BALBc (pre-OVA) mice, n=8; provocative concentration increasing sRaw to 175% post-saline value; mean
Experimental: The double chamber plethysmograph was purchased from a commercial source (PLY3351, Buxco Electronics Inc, Wilmington, N.C.). The techniques for measurement with this technique have been described previously (DeLorme, et al. and Flandre, et al.). The flow for each chamber (nasal and thoracic) of the DCP was calibrated separately by rapid injection of a known volume (0.5 mL) into the chamber; volume was matched by the integration of flow. The accuracy of calibration was checked before each test. The phase lag between the chambers was negligible (<0.01 msec up to 10 Hz). For DCP, mice were loaded into the rear of the thoracic chamber and pushed forward until the head protruded through a hole in a latex neck seal provided with the equipment. […] Computation of sRaw measured with DCP (hereinafter sRaw-DCP) followed protocols established by Pennock, et al. and later applied to mice by Flandre, et al, whereby the time lag (dT) between the thoracic and nasal flow at zero crossing (during transition between inspiration and expiration) was utilized as follows: sRaw−DCP=(Ti+Te)/(2π)×(Patm−47)×1.36 2×π×dT/(Ti+Te), Equation 2: where Ti and Te equal inspiratory and expiratory time (sec) and Patm atmospheric pressure (cm H2O). The peak dT was identified and 10 sequential breaths free from movement artifacts were measured for that period. […]

SMILES: CC(=O)OC(C)C[N+](C)(C)C (centres unmarked) [methacholine]
- sRaw-RWBP ED175 (conscious mice [1]; AJ mice, n=18, provocative concentration increasing sRaw to 175% post-saline value): 4.49^a,b mg/mL
- sRaw-RWBP ED175 (conscious mice [1]; BALBc (no OVA) mice, n=18, provocative concentration increasing sRaw to 175% post-saline value): 10.9^a mg/mL
- sRaw-RWBP ED175 (conscious mice [1]; BALBc (post-OVA) mice, n=8, 48 hrs following allergen challenge in sensitized group): 5.0 mg/mL and 5.0^a,c mg/mL
- sRaw-RWBP ED175 (conscious mice [1]; BALBc (pre-OVA) mice, n=8, prior to sensitization and aerosol exposure to ovalbumin): 9.2 mg/mL and 9.2^ mg/mL
- sRaw-RWBP ED175 (conscious mice [1]; C57 mice, n=18, provocative concentration increasing sRaw to 175% post-saline value): 40.5^b mg/mL
- change in tidal volume (conscious mice [1]; conscious C57, AJ and BALBc mice, any strain (FIG. 10C)): no change
- change in sRaw-RWBP (conscious mice [1]; conscious C57, AJ and BALBc mice, dose response (FIG. 10A)): significant dose-dependent increase
- change in respiratory frequency (conscious mice [1]; conscious C57, AJ and BALBc mice, dose response (FIG. 10B)): significant decrease
- average sRaw (conscious mice [1]; methacholine aerosol dose 10 mg/mL (FIG. 9B)): 0.75 cm·s
- average sRaw (conscious mice [1]; methacholine aerosol dose 50 mg/mL (FIG. 9C)): 0.86 cm·s
- average sRaw (conscious mice [1]; methacholine aerosol dose 100 mg/mL (FIG. 9D)): 1.61 cm·s
- period of peak responses based on EF50 after exposure (conscious mice [1]; time after exposure to methacholine): 1.5 to 2.5 min
- Raw ED175 ([2]; AJ mice, n=18): 2.3^a mg/mL
- Raw ED175 ([2]; BALBc (pre-OVA) mice): 9.48 mg/mL
- Raw ED175 ([2]; C57 mice, n=18): 8.3 mg/mL
- change in Raw ([2]; anesthetized, tracheotomized C57, AJ and BALBc mice, all 3 strains (FIG. 11)): dose-dependent increase
- sRaw-DCP ED175 (conscious mice [3]): 7.1^a mg/mL
